From patent publication US20100041620A1, “METHODS FOR IMPROVING FRONTAL BRAIN BIOENERGETIC METABOLISM” (priority 2008, published 2010)

Assays:
[1] = test system: anterior cingulate cortex (ACC); test: 31P magnetic resonance spectroscopic imaging (3D-CSI, 4 Tesla) of phosphorus metabolites, anterior cingulate cortex; assay type: in vivo, human
From the text: (§1) ^31P data were collected using a three-dimensional chemical shift imaging (3D-CSI) technique at 4 Tesla in healthy middle-aged individuals. The use of 3D-CSI at high field has several advantages over previous methods: (1) increased spectral dispersion, which allows for increased precision of metabolite quantification; (2) post-processing grid shifting that allows for 3D placement of voxels of interest; and (3) the ability to co-register voxel placement between baseline and post-treatment follow-up. High-energy metabolite peaks quantified in the present study include phosphocreatine (PCr), β-nucleoside triphosphate (NTP, ATP in brain), and inorganic phosphate (Pi). Phospholipid membrane metabolite peaks quantified include anabolites, phosphomonoesters (PME), including phosphoethanolamine (PE) and phosphocholine (PC), and catabolites, phosphodiesters (PDE), including glycerophosphoethanolamine (GPE) and glycerolphosphocholine (GPC). A region of interest approach was used to examine phosphorus metabolite levels in the anterior cingulate cortex (ACC), given the notable age-related decline in frontal brain metabolism and impairment of frontally-mediated cognitive functions. A comparison region placed in the parieto-occipital cortex (POC) was also evaluated. It was hypothesized that oral supplementation with citicoline would improve frontal bioenergetic metabolism via elevations in availability of high-energy phosphates, as well as alteration of membrane phospholipid turnover by providing additional membrane precursors.
(§2) Subjects included sixteen neurologically and psychiatrically healthy adults (mean age=47.3±5.4 years; 8 females, 8 males). Trained research technicians administered a structured clinical psychiatric interview using the Structured Clinical Interview for DSM-IV (SCID). All subjects were free of Axis I diagnoses, neurological illness, severe medical problems, and psychoactive substance use.
(§3) Subjects were randomly assigned to receive a six-week supply of either 500 mg (4 males and 4 females) or 2000 mg (4 males and 4 females) of Cognizin® Citicoline (Kyowa Hakko Kogyo Co., Ltd., JAPAN). Subjects were instructed to take one capsule every day (500 mg group) or four capsules every day in a single dose (2000 mg group) for six weeks. […] Magnetic resonance spectroscopy (MRS) was completed on all subjects in two imaging sessions: one prior to beginning treatment (baseline) and one after completing six weeks of treatment.
(§4) All proton imaging was performed using the proton channel of the dual tuned open face proton-phosphorus TEM whole-head coil from Bioengineering Inc. (Minneapolis, Minn.) operating at a nominal frequency of 170.3 MHz. A 2D gradient-recalled echo imaging sequence (12 seconds duration) was used to acquire a single image in all three spatial dimensions (sagittal, coronal, axial) to quickly determine the patient's position and angle. High-contrast, T1-weighted sagittal, coronal images as well as T1 and T2-weighted transverse images of the entire brain were acquired using a three-dimensional, magnetization-prepared FLASH imaging sequence (3D-MP FLASH), allowing for clear segmentation between grey-matter, white-matter, and CSF, as well as clearly delineating between the different anatomical regions of interest. This approach was used to optimize ^31P-MRSI voxel positioning and volumetric correction in the regions of interest.
(§5) Phosphorus MRSI was performed using the phosphorus channel of the dual tuned proton-phosphorus TEM whole-head coil from Bioengineering Inc. (Minneapolis, Minn.) operating at 68.9 MHz. Phosphorus MRSI data were recorded using a three-dimensional chemical shift imaging (3D-CSI) sequence (Garraux, Neuroimage 10:149-162, 1999). […]

[2] = test system: parieto-occipital cortex (POC); test: 31P magnetic resonance spectroscopic imaging (3D-CSI, 4 Tesla) of phosphorus metabolites, parieto-occipital cortex comparison region; assay type: in vivo, human; conditions: 6 weeks oral citicoline, doses pooled, mean ± SD
From the text: as §1, §2, §3, §4, §5

[3] = six weeks of citicoline supplementation, decrease
[4] = six weeks of citicoline supplementation, increase

SMILES: C[N+](C)(C)CCOP(=O)(O)OP(=O)([O-])OC[C@H]1O[C@@H](n2ccc(N)nc2=O)[C@H](O)[C@@H]1O [citicoline, cytidine 5′-diphosphocholine]
- PCr, metabolite ratio relative to the total 31P signal ([1]; 6 weeks oral citicoline, 500 and 2000 mg/day groups pooled, mean ± SD, baseline .154 ± .019, p .02): .162 ± .015
- PCr/Pi ([1]; 6 weeks oral citicoline, doses pooled, mean ± SD, baseline 2.17 ± .46, p .03): 2.82 ± 1.04
- PC, metabolite ratio relative to the total 31P signal ([1]; 6 weeks oral citicoline, doses pooled, mean ± SD, baseline .026 ± .010, p .02): .019 ± .008
- GPE, metabolite ratio relative to the total 31P signal ([1]; 6 weeks oral citicoline, doses pooled, mean ± SD, baseline .039 ± .010, p .01): .030 ± .009
- PE, metabolite ratio relative to the total 31P signal ([1]; 6 weeks oral citicoline, doses pooled, mean ± SD, baseline .043 ± .015, p .04): .054 ± .008
- GPC, metabolite ratio relative to the total 31P signal ([1]; 6 weeks oral citicoline, doses pooled, mean ± SD, baseline .051 ± .015, ns): .047 ± .016
- β-NTP, metabolite ratio relative to the total 31P signal ([1]; 6 weeks oral citicoline, doses pooled, mean ± SD, baseline .066 ± .012, p .05): .075 ± .014
- PME, metabolite ratio relative to the total 31P signal ([1]; 6 weeks oral citicoline, doses pooled, mean ± SD, baseline .069 ± .016, ns): .073 ± .012
- Pi, metabolite ratio relative to the total 31P signal ([1]; 6 weeks oral citicoline, doses pooled, mean ± SD, baseline .073 ± .012, p .15): .065 ± .022
- PDE, metabolite ratio relative to the total 31P signal ([1]; 6 weeks oral citicoline, doses pooled, mean ± SD, baseline .183 ± .032, p .07): .154 ± .049
- decreased GPE, change from baseline [1, 3]: 23%
- decreased PC, change from baseline [1, 3]: 29%
- increased PCr/Pi, change from baseline ([1]; six weeks of citicoline supplementation, doses pooled, increase): 32%
- increased PCr, change from baseline [1, 4]: 7%
- increased PE, change from baseline [1, 4]: 26%
- increased β-NTP, change from baseline [1, 4]: 14%
- Pi, metabolite ratio relative to the total 31P signal ([1]; six weeks, 2000 mg/day group, baseline 0.069±0.010, p=0.57): 0.073±0.019
- PCr/Pi ratio ([1]; six weeks, 2000 mg/day group, baseline 2.41±0.52, p=0.84): 2.33±0.61
- increased PCr/Pi, change from baseline ([1]; six weeks, low dose (500 mg), increase): 66%
- decreased Pi, change from baseline ([1]; six weeks, low dose only (500 mg), decrease): 26%
- PCr/Pi ([2]; baseline 2.30 ± .34, ns): 2.38 ± .53
- PC, metabolite ratio relative to the total 31P signal ([2]; baseline .023 ± .009, ns): .026 ± .012
- GPE, metabolite ratio relative to the total 31P signal ([2]; baseline .034 ± .011, ns): .032 ± .014
- GPC, metabolite ratio relative to the total 31P signal ([2]; baseline .047 ± .017, ns): .047 ± .010
- β-NTP, metabolite ratio relative to the total 31P signal ([2]; baseline .063 ± .009, ns): .066 ± .010
- PE, metabolite ratio relative to the total 31P signal ([2]; baseline .065 ± .009, ns): .058 ± .010
- Pi, metabolite ratio relative to the total 31P signal ([2]; baseline .072 ± .010, ns): .075 ± .013
- PME, metabolite ratio relative to the total 31P signal ([2]; baseline .088 ± .015, ns): .084 ± .011
- PCr, metabolite ratio relative to the total 31P signal ([2]; baseline .164 ± .016, ns): .173 ± .015
- PDE, metabolite ratio relative to the total 31P signal ([2]; baseline .165 ± .029, ns): .152 ± .030
